From paper PMC7093416, “Selective USP7 inhibition elicits cancer cell killing through a p53-dependent mechanism” (Scientific Reports, 2020)

Assays:
USP7 [1] = molecular target: T1, USP7 (Homo sapiens, UniProt Q93009); assay: XL177A-DTB chemoproteomic profiling with XL177A competition, USP7; assay type: binding; parameters: endogenous in cells; host or cells: HEK 293AD lysate
Method: HEK 293AD cells were lysed as described above, and the lysate was cleared by centrifugation. […] SDS was added to a final concentration of 1.2% (27.2 μL of a 10% stock), and denatured by heating to 80 °C for 5 minutes. After cooling to RT, 1125 μL 1X PBS was added to dilute the final SDS concentration to 0.2%. 50 μL streptavidin agarose slurry was added to each sample, followed by incubation at RT for 3 hours. After streptavidin enrichment, samples were washed vigorously (2×0.2% SDS, 3x PBS, 3x ddH2O). After the final wash, all supernatant was removed using a flat-bottom tip, and the resin was flash frozen and stored at −80 °C until workup for TMT labeling.
To remove rapigest, recovered supernatants were acidified with 10% TFA, incubated at 37 °C for 45 minutes, and centrifuged at 14,000 rpm for 15 minutes at 4 °C. Peptides were then desalted by C18, and dried by vacuum centrifugation. Dried peptides were reconstituted in 50 mM pH8.0 TEAB and labeled with TMT reagent at RT for 1 hour. TMT reactions were pooled and treated with hydroxylamine according to the manufacturer’s instructions. Peptide mixtures were then dried, reconstituted in 50 mM ammonium bicarbonate and desalted by SP3[53]. Eluted peptides were then analyzed by nanoflow LC-MS/MS as described[64] with a NanoAcquity UPLC system (Waters, Milford, MA) interfaced to a QExactive HF mass spectrometer (Thermofisher Scientific, San Jose, CA). TMT labeled peptides were injected onto a precolumn (4 cm POROS 10R2, Applied Biosystems, Framingham, MA), resolved on an analytical column (30 µm I.D. × 50 cm packed with 5 µm Monitor C18) and introduced to the mass spectrometer by ESI (spray voltage = 3.5 kV, flow rate ~30 nL/min). The mass spectrometer was operated in data dependent mode such that the 15 most abundant ions in each MS scan (m/z 300–2000, 120 K resolution, target = 3E6, lock mass for 445.120025 enabled) were subjected to MS/MS (m/z 100–2000, 30 K resolution, target = 1E5, max fill time = 100 ms). Dynamic exclusion was selected with a repeat count of 1 and an exclusion time of 30 seconds. MS/MS data was extracted to.mgf using mulitplierz scripts[54],[55] and searched against a forward-reverse human NCBI refseq database using Mascot version 2.6. Search parameters specified fixed carbamidomethylation of cysteine, fixed N-terminal and lysine TMT labelling, and variable oxidation (methionine). Additional multiplierz scripts were used to filter results to 1% FDR and derive protein-level aggregate reporter ion intensities using peptides mapping uniquely into the genome.

USP7 [2] = molecular target: T1, USP7; assay: Live cell treatment and competitive ABPP with HA-Ub-VS; assay type: cell-based; parameters: endogenous in cells; host or cells: MCF7; details: live cell treatment, 6 hr; read-out: IC50, USP7 inhibition in cyto
Method: HA-Ub-VS experiments were performed as previously described in Lamberto et al[29]. Briefly, target engagement lysis buffer (50 mM Tris pH 8.0, 150 mM NaCl, 5 mM MgCl2, 0.5 mM EDTA, 0.5% NP-40, 10% glycerol, 1 mM TCEP, protease and phosphatase inhibitors) was added to cell pellets on ice. Lysate was cleared by centrifugation and diluted to 1.67 mg/mL. Where indicated, 30 μL lysate was then incubated with inhibitors or DMSO for the indicated timepoints. 1 μM HA-Ub-VS was then added to the lysate and incubated at RT for the indicated time points. Labeling reactions were quenched with 4x LDS sample buffer (Thermo Fisher B0007) supplemented with 10% BME, vortexed vigorously, and heated to 95 C for 5 minutes. Samples were resolved by SDS-PAGE and analyzed by Western blot with the indicated antibodies.

TC32 cells = assay: Cell viability (CellTiter-Glo) in TC32 cells expressing sgRNA (TP53-KO vs control); assay type: cell-based; details: 3 days
Method: Cells were plated in 384-well culture-treated plates and allowed to settle overnight. After drug treament and appropriate incubation time, cell viability was assessed using the CellTiter-Glo Luminescent Cell Viability Assay (Promega). Luminescence was read on a Fluostar Omega Reader (BMG Labtech).

[3] = USP7 reporter ion intensity, XL177A-DTB pulldown, HEK293AD lysate pre-treated 100nM XL177A
[4] = USP7 reporter ion intensity, XL177A-DTB pulldown, HEK293AD lysate pre-treated 1uM XL177A
[5] = USP7 reporter ion intensity, XL177A-DTB pulldown, HEK293AD lysate pre-treated 10uM XL177A
[6] = USP7 reporter ion intensity, average of Run 1 and Run 2, 100nM XL177A
[7] = USP7 reporter ion intensity, average of Run 1 and Run 2, 1uM XL177A
[8] = USP7 reporter ion intensity, average of Run 1 and Run 2, 10uM XL177A

T1 sequence (Q93009 whole entry): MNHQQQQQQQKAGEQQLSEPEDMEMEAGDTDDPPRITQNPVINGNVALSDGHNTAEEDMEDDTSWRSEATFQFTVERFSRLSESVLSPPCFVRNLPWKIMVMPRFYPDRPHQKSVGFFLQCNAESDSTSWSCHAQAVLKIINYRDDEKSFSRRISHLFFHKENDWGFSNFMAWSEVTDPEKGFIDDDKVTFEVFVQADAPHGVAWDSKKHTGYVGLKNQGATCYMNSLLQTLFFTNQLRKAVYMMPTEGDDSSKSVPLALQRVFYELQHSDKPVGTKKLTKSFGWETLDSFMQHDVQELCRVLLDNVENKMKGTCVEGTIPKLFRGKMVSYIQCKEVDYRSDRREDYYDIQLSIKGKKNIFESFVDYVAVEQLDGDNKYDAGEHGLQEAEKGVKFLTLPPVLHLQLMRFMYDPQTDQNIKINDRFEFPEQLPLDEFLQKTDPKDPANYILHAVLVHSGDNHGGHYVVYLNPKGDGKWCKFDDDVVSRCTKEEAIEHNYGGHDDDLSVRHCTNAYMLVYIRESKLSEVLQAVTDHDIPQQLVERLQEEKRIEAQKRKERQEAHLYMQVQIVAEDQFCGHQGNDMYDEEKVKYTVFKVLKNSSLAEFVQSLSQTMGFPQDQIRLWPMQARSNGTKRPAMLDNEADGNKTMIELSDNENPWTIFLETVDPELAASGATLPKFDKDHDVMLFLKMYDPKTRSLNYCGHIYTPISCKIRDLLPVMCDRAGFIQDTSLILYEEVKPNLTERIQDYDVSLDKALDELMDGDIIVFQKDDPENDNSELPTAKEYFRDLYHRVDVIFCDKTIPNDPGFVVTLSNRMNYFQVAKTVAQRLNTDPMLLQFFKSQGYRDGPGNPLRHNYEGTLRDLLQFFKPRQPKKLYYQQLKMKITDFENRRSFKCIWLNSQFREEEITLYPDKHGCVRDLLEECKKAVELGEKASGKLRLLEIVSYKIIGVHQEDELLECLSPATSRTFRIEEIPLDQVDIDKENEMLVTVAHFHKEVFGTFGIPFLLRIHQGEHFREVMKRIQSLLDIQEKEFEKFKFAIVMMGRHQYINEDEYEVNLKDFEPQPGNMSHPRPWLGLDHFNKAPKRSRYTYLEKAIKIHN

SMILES: CN1CCN(CCC(=O)Nc2ccc3c(=O)n(CC4(O)CCN(C(=O)[C@@H](CCCNC(=O)c5ccc6c(Cl)c7c(nc6c5)CCCC7)Cc5ccccc5)CC4)cnc3c2)CC1 [XL177A]
- inhibition of XL177A-DTB labeling (USP7 [1]; HEK293 lysate, XL177A 1 or 10 μM, 5 hours, only USP7 of 566 proteins): > 3 fold
- Run 1 100nM 1 (USP7 [1]; [3]): 31732106
- Run 1 100nM 2 (USP7 [1]; [3]): 30184262
- Run 1 100nM 3 (USP7 [1]; [3]): 32232481
- Run 2 100nM 1 (USP7 [1]; [3]): 31803721
- Run 2 100nM 2 (USP7 [1]; [3]): 30185364
- Run 2 100nM 3 (USP7 [1]; [3]): 32073312
- Run 1 1uM 1 (USP7 [1]; [4]): 8663971
- Run 1 1uM 2 (USP7 [1]; [4]): 7593596
- Run 1 1uM 3 (USP7 [1]; [4]): 8340895
- Run 2 1uM 1 (USP7 [1]; [4]): 8601953
- Run 2 1uM 2 (USP7 [1]; [4]): 7625246
- Run 2 1uM 3 (USP7 [1]; [4]): 8414168
- Run 1 10uM 1 (USP7 [1]; [5]): 7727617
- Run 1 10uM 2 (USP7 [1]; [5]): 7625585
- Run 2 10uM 1 (USP7 [1]; [5]): 7739438
- Run 2 10uM 2 (USP7 [1]; [5]): 7761626
- AVE 100nM 1 (USP7 [1]; [6]): 31767914
- AVE 100nM 2 (USP7 [1]; [6]): 30184813
- AVE 100nM 3 (USP7 [1]; [6]): 32152896
- AVE 1uM 1 (USP7 [1]; [7]): 8632962
- AVE 1uM 2 (USP7 [1]; [7]): 7609421
- AVE 1uM 3 (USP7 [1]; [7]): 8377532
- AVE 10uM 1 (USP7 [1]; [8]): 7733528
- AVE 10uM 2 (USP7 [1]; [8]): 7693606
- IC50 (USP7 [2]): 39 nM
- effect of TP53 KO on growth suppression (TC32 cells): completely rescued TC32 growth except at high doses
